In patent publication US12686809B2, “Methods and formulations for treating oil-containing porous media for oil recovery” (UNIVERSITY OF WYOMING, priority 2020, dated 2026):

Experiments:
Format in all cases: physicochemical
[1] = Microemulsion phase behavior of surfactant solution/crude oil; conditions: for phase behavior (in words): about 0.1 wt % in blank brine/crude oil 1:1, about 80° C. versus ambient; for volume of surfactant phase formed between oil and brine: about 80° C.
Description: Microemulsion phase behavior: The microemulsion phase behavior of surfactants with different structures was investigated with respect to temperature. The effect of surfactant hydrophobic chain length on phase behavior was examined at ambient temperature (about 22° C.) and at elevated temperature (about 80° C.). For these experiments, glass pipettes were filled with brine/crude oil at a ratio of about 1:1 or surfactant solution/crude oil at a ratio of about 1:1. The pipettes were then sealed with a torch and shaken at the speed of about 250 rpm for about 24 hours (h). The pipettes were then monitored for several days and images were recorded.
Microemulsion phase behavior tests can generally be utilized to characterize surfactant stability. The phase behavior of surfactants can depend on distinct parameters such as temperature, surfactant concentration, and/or brine salinity. The effect of temperature on phase behavior was systematically investigated for various surfactants. Here, the phase behavior test was first performed on a pipette containing blank brine and the crude oil.
FIG. 13 is a series of exemplary images showing the phase behavior of cationic surfactants with a chloride head—TOAC, DTAC, CTAC, and TSAC—at ambient temperatures (left panel) and at about 80° C. (right panel). FIG. 14 is each a series of exemplary images showing the phase behavior of cationic surfactants with a bromide head—TOAB, DTAB, CTAB, and TODAB—at ambient temperatures (left panel) and at about 80° C. (right panel). For these tests, each surfactant was made into a surfactant solution (about 0.1 wt % in blank brine).

[2] = Density difference between surfactant solution and crude oil; conditions: ~0.1 wt % in blank brine vs reservoir crude oil; ambient conditions
Description: Density: The density of the two phases (oil and brine; or oil and surfactant solution) was measured at atmospheric pressure and 22° C. using a DMA45 density meter from Anton Paar. The density of the two phases was also measured at reservoir conditions (120° C., 6000 psi) using an in-line density meter (DMA HPM, Anton Paar).
(§1) Measurement of the IFT between surfactant solutions/reservoir oil at ambient conditions were first performed to, e.g., examine the impact of the hydrophobic chain length on the interfacial properties of cationic surfactants. For these measurements, a KRÜSS Spinning Drop Tensiometer was used.

[3] = IFT between surfactant solutions and reservoir crude oil at ambient conditions (spinning drop); conditions: ~0.1 wt % in blank brine
Description: Spinning drop method: The spinning drop method was utilized to measure ultra-low IFT values. The instrumentation included a KRÜSS Spinning Drop Tensiometer was employed and the spinning drop method was performed as follows. A crude oil droplet was launched from a capillary plug into a capillary tube filled with the surfactant solution. While the glass capillary tube was rotating, the software-controlled instrument measured the IFT between oil and brine by analyzing the drop shape which depends on the balance between interfacial and centrifugal forces. At low rotational speeds, the IFT is the dominating force and the droplet is spherical in shape. In this case the software uses Young-Laplace equation to calculate IFT. When the angular velocity is high, the droplet is elongated (length is at least 4 times the diameter) and Vonnegut's equation is used to calculate the IFT.
as §1

[4] = Critical micelle concentration by surface tension (pendant drop) at ambient conditions; conditions: surface tension against air
Description: Pendant drop method: The pendant drop method was mainly utilized when the density of the suspended phase is higher than that of the bulk phase. The same device as that used in the captive/rising bubble method is used for the pendant drop method. The method consists of a drop suspended from a needle to determine interfacial and surface tension of liquid/liquid and liquid/gas systems. The critical micelle concentration (CMC) of cationic surfactants was measured using surface tension measurements between the surfactant solutions and air at ambient conditions. […] Therefore, generally, the measurements were performed at a concentration above CMC (about 0.1 wt %), which is the one typically used in the field.
CMC measurements were performed to, e.g., investigate the effect of the hydrophobic chain length on the behavior of cationic surfactant molecules at the interface. […] As a baseline, the surface tension of blank brine was measured to be about 75.4 mN/m.
FIGS. 18A-18C show exemplary data for CMC measurements of surfactants with chloride heads and various alkyl chain lengths and depicting the variations of surface tension with concentration. Specifically, FIGS. 18A, 18B, and 18C show exemplary surface tension data for DTAC, CTAC, and TSAC.

[5] = Krafft and cloud point temperatures at reservoir conditions (IFT cell, 6,000 psi); conditions: about 0.1 wt % in blank brine; about 6,000 psi
Description: (§2) The cloud points of certain nonionic surfactants were measured at high pressure (about 6,000 psi) and temperature. […] (center panel) and about 99.9° C. (right panel), at a pressure of about 6,000 psi.
(right panel), at a pressure of about 6,000 psi.

[6] = Krafft and cloud point temperatures / solution cloudiness at ambient conditions; conditions: about 0.1 wt % in blank brine; for solution clarity/cloudiness (in words): about 22° C., ambient conditions
Description: Krafft and cloud point temperatures at ambient conditions: At ambient conditions, the Krafft point and cloud point temperatures were determined as follows. Fresh brine solutions containing about 0.1 wt % of surfactant solution were prepared and poured into 25 ml glass vials. The vials were capped and placed upright in a water bath and/or heater at an initial temperature of about 22° C. […] For each increment, it typically took at least 20 minutes for the brine to reach thermal equilibrium (temperature stabilization) with the water bath. The cloud and Krafft points were determined visually by recording the temperatures at which cloudiness was observed or disappeared. Images of the brine solutions were captured after each temperature stabilization.
The effect of the hydrophobic (alkyl) chain length on the stability and aqueous solubility/cloudiness of cationic surfactants was examined by measuring Krafft points at elevated pressure and temperature were performed. FIG. 15 is a series of exemplary images of solutions of cationic surfactants having a bromide head with increasing carbon atom numbers from left to right—DTAB (left panel), CTAB (center panel), and TODAB (right panel). For these tests, each surfactant was made into a surfactant solution (about 0.1 wt % in blank brine). The images were captured at about 22° C.
(left panel) and about 75° C. (right panel).
as §2

[7] = IFT between surfactant solutions and reservoir oil at reservoir conditions; conditions: about 100° C. and about 1,000 psi
Description: Captive/rising bubble method: The captive/rising bubble method was utilized to measure the dynamic IFT and contact angle at reservoir conditions. This method was performed as follows. The lighter phase was injected through a needle to form a bubble inside the heavier phase. The IFT between the two phases was calculated from the shape of the bubble using the Young-Laplace equation through Axisymmetric Drop Shape Analysis (ADSA). The state-of-the-art interfacial tension and contact angle (IFT/CA) apparatus adopted for the measurements is described and used by S. Saraji et al., Wettability of Supercritical Carbon Dioxide/Water/Quartz Systems: Simultaneous Measurement of Contact Angle and Interfacial Tension at Reservoir Conditions, Langmuir, 29 (2013) 6856-6866. This experimental setup can operate at elevated temperature (up to 200° C.) and pressure (up to 8000 psi). […] For contact angle measurement, a droplet was injected from the needle onto the solid substrate and monitored by capturing several images with time and analyzing them using ImageJ software.
Pendant drop method: The pendant drop method was mainly utilized when the density of the suspended phase is higher than that of the bulk phase. […] The critical micelle concentration (CMC) of cationic surfactants was measured using surface tension measurements between the surfactant solutions and air at ambient conditions. […]

Structure (SMILES) | phase behavior (in words) [1] | volume of surfactant phase formed between oil and brine [1] | Krafft point [5] | solution clarity/cloudiness (in words) [6] | temperature at which the solution became and stayed clear ([6]; heated while stirring, ambient pressure) | IFT reduction relative to the blank brine [7] | Δρ (change in density) [2] [g/mL] | γ (interfacial tension surfactant solution/reservoir oil) [3] [mN/m] | CMC [4]
CCCCCCCCCCCCCCCC[N+](C)(C)C.[Br-] [CTAB, Hexadecyltrimethylammonium bromide] |  |  |  |  |  |  | 0.382 | 0.15 | 
CCCCCCCCCCCC[N+](C)(C)C.[Cl-] [DTAC, Dodecyltrimethylammonium chloride] |  |  |  |  |  |  | 0.3826 | 1.6 | about 0.005 wt %
CCCCCCCCCCCCCCCC[N+](C)(C)C.[Cl-] [CTAC, Cetyltrimethyl ammonium chloride] |  |  |  |  |  |  | 0.3834 | 0.11 | about 0.003 wt %
CCCCCCCCCCCC[N+](C)(C)C.[Br-] [DTAB, Dodecyltrimethylammonium bromide] |  |  |  |  |  |  | 0.3835 | 1.1 | 

Continued, in another order:

phase behavior (in words) [1] | volume of surfactant phase formed between oil and brine [1] | Krafft point [5] | solution clarity/cloudiness (in words) [6] | temperature at which the solution became and stayed clear ([6]; heated while stirring, ambient pressure) | IFT reduction relative to the blank brine [7] | Structure (SMILES) | Δρ (change in density) [2] [g/mL] | γ (interfacial tension surfactant solution/reservoir oil) [3] [mN/m] | CMC [4]
poor solubility | about 0.1 cm^3 |  |  |  |  | CCCCCCCCCCCCCCCCCC[N+](C)(C)C.[Br-] [TODAB, Trimethyloctadecylammonium bromide] | 0.3831 | 0.07 | 
poor solubility | about 0.1 cm^3 | about 40 °C | cloudiest | about 75 °C |  | CCCCCCCCCCCCCCCCCC[N+](C)(C)C.[Cl-] [TSAC, Trimethyloctadecylammonium chloride] | 0.3829 |  | about 0.001 wt %
less influenced by temperature |  |  | already clear at ambient conditions |  | about 7 mN/m | CCCCCCCC[N+](C)(C)C.[Br-] [TOAB, Trimethyloctylammonium bromide] | 0.3823 | 8.4 | 
less influenced by temperature |  |  | clearest |  |  | CCCCCCCC[N+](C)(C)C.[Cl-] [TOAC, Trimethyloctylammonium chloride] | 0.3822 | 5.05 | 
